The subject of one test is A431 cells. The test can be described thus: cells. As to conditions: Homo sapiens, A-431, 72 h, read-out: IC50 in A431 cells.
The test system of the next test is H1975 cells. The experiment in a line: Inhibition of cancer cell growth, MTT assay, H1975. Conditions: Homo sapiens, NCI-H1975, 72 h, read-out: IC50 in H1975 cells. On the technique in general: Tetrazolium assays rely on reduction of a dye to a coloured formazan, in cell work by metabolically active cells.
The next test has as its target EGFR (ErbB1) T790M L858R (Homo sapiens (Human), UniProt P00533, L858R/T790M). The experiment in a line: Z'-LYTE kinase inhibition assay, EGFR L858R/T790M. In kind it is biochemical. As to conditions: for inhibition at 0.0137 µM: read-out: % inhibition against EGFR L858R/T790M (Compound at 0.0137 μM); for IC50: read-out: IC50 against EGFR L858R/T790M. The method in brief: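 IC50 taken from 10-point, 3-fold serial dilutions tested in 1% DMSO. The mutant kinase and peptide were prepared in HEPES pH 6.5 buffer with BRIJ-35, MgCl2, EGTA and NaN3, then reacted with ATP for 1 h at room temperature. Development reagent was added for a further hour before the fluorescence readout.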

A further test concerns the target EGFR (ErbB1) (Homo sapiens (Human), UniProt P00533). The experiment in a line: Z'-LYTE kinase inhibition assay, EGFR. In kind it is biochemical. Conditions: for inhibition at 0.041 µM: read-out: % inhibition against EGFR (Compound at 0.041 μM). The method, boiled down:
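IC50 values derived from 10-point, 3-fold compound dilution series (1% DMSO final) using Z'-LYTE fluorescence readout after 60-min development. Reaction: EGFR (1.1-5.25 ng) with 2 μM peptide, 60 min at room temperature in HEPES pH 7.5 buffer containing MgCl2, MnCl2, EGTA, DTT and BRIJ-35.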

Where only a bound is given, the exact number is not on record here.

Sequence of EGFR (ErbB1) T790M L858R (P00533 25-1210 T790M/L858R): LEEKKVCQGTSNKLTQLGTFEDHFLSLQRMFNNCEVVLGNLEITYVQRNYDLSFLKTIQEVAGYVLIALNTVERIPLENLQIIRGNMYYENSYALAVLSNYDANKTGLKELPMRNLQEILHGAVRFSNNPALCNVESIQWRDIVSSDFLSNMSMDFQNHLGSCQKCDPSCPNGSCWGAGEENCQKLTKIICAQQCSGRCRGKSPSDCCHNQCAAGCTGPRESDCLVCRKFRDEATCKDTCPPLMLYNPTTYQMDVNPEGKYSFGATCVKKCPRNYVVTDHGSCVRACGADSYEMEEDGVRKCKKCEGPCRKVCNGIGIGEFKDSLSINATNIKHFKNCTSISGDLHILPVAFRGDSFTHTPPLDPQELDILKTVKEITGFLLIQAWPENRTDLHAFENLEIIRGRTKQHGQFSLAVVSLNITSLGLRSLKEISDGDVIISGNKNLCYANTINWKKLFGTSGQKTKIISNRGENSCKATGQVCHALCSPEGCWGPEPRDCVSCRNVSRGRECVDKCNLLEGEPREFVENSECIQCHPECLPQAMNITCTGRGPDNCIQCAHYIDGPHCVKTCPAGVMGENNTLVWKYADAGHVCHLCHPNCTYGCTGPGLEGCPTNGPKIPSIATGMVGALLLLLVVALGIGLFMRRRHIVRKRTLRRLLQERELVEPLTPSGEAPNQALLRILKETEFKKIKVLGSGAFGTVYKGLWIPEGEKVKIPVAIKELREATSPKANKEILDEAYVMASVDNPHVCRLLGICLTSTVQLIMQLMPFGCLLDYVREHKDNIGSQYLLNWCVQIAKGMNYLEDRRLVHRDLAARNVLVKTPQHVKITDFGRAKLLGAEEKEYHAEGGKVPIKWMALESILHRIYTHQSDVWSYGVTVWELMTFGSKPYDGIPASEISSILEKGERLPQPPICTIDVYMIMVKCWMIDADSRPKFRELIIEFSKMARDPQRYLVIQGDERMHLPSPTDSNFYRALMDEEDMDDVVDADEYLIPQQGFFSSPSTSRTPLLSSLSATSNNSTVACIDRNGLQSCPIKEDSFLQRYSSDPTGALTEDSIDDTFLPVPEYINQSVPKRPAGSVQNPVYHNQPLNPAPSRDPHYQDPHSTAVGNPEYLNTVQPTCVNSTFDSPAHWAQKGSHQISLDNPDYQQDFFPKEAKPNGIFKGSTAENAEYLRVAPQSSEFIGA
Sequence of EGFR (ErbB1) (P00533 25-1210): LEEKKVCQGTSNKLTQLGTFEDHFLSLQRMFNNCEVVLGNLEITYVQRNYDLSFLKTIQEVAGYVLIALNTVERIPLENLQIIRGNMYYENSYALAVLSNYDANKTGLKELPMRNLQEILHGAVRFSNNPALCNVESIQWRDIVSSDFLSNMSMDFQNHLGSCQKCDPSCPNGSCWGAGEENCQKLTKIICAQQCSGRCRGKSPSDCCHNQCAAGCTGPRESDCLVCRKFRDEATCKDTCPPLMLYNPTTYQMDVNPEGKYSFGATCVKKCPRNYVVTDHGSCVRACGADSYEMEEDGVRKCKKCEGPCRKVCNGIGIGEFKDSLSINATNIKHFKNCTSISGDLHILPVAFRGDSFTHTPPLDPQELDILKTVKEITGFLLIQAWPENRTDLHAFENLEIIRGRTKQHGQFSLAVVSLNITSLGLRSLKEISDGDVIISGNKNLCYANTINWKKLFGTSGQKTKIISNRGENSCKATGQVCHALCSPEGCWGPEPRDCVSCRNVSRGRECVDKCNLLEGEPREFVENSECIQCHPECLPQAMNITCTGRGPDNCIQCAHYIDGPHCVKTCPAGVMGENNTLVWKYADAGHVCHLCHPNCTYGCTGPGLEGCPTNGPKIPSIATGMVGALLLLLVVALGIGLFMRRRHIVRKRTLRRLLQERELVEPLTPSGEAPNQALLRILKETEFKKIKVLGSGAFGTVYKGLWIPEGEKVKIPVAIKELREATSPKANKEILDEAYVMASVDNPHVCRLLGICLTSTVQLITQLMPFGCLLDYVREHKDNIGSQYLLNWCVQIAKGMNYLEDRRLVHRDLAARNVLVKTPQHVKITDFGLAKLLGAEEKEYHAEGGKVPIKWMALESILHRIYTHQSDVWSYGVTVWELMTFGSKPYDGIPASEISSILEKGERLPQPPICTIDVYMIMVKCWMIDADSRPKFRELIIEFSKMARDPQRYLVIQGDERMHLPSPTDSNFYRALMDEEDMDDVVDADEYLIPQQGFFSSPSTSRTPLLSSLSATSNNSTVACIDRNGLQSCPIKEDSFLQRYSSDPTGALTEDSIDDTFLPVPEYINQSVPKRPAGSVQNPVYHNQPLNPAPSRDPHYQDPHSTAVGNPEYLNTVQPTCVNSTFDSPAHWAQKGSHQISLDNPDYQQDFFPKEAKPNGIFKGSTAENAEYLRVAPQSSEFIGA

On to `C=CC(=O)Nc1cccc(-c2cccc3cnc(Nc4ccc(N5CCN(C)CC5)cc4Cl)nc23)c1` [Example C043, N-(3-(2-((2-chloro-4-(4-methylpiperazin-1-yl)phenyl)amino)quinazolin-8-yl)phenyl)acrylamide], for which the IC50 with A431 cells is more than 0.5 µM; in the test on H1975 cells, 0.1 to 0.5 µM. The inhibition at 0.0137 µM at EGFR (ErbB1) T790M L858R was more than 50%. At EGFR (ErbB1), the inhibition at 0.041 µM was more than 50%.
For the compound `C=CC(=O)Nc1cccc(-c2cccc3cnc(Nc4ccc(N5CCN(CCF)CC5)cc4)nc23)c1F` [Example C061, N-(2-fluoro-3-(2-((4-(4-(2-fluoroethyl)piperazin-1-yl)phenyl)amino)quinazolin-8-yl)phenyl)acrylamide], the results for the IC50 in the test with A431 cells, in the test on H1975 cells and on EGFR (ErbB1) T790M L858R were more than 0.5 µM, less than 0.1 µM and less than 0.1 µM, respectively. Besides, at EGFR (ErbB1) T790M L858R, the inhibition at 0.0137 µM was more than 50%. Also, the inhibition at 0.041 µM at EGFR (ErbB1) is less than 50%.
For the compound `C=CC(=O)Nc1cccc(-c2cccc3cnc(Nc4ccc(N5CCN(C)CC5)c(F)c4)nc23)c1` [Example C069, N-(3-(2-((3-fluoro-4-(4-methylpiperazin-1-yl)phenyl)amino)quinazolin-8-yl)phenyl)acrylamide], the IC50 with A431 cells and in the test on H1975 cells was less than 0.1 µM each time. The inhibition at 0.0137 µM at EGFR (ErbB1) T790M L858R was more than 50%. At EGFR (ErbB1), the inhibition at 0.041 µM was more than 50%.
Regarding `C=CC(=O)Nc1cccc(-c2cccc3cnc(Nc4ccc(N5CCOC5=O)cc4)nc23)c1` [Example C091, N-(3-(2-((4-(2-oxooxazolidin-3-yl)phenyl)amino)quinazolin-8-yl)phenyl)acrylamide], the IC50 in the test with A431 cells is more than 0.5 µM; in the test with H1975 cells it was 0.1 to 0.5 µM. Further, at EGFR (ErbB1) T790M L858R, the inhibition at 0.0137 µM was less than 50%. The inhibition at 0.041 µM on EGFR (ErbB1) was less than 50%.
Take `C=CC(=O)Nc1cccc(-c2cccc3cnc(Nc4ccc(N[C@@H]5CCN(C)C5)cc4)nc23)c1` [Example C129, (R)-N-(3-(2-((4-((1-methylpyrrolidin-3-yl)amino)phenyl)amino)quinazolin-8-yl)phenyl)acrylamide]: the IC50 in the test with A431 cells, in the test with H1975 cells and on EGFR (ErbB1) T790M L858R was less than 0.1 µM each time. For the same compound, on EGFR (ErbB1) T790M L858R, the inhibition at 0.0137 µM was more than 50%. In addition, the inhibition at 0.041 µM on EGFR (ErbB1) is more than 50%.
Consider `C=CC(=O)Nc1cccc(-c2cccc3cnc(Nc4ccc(N5CCN(C)CC5)nc4)nc23)c1F` [Example C048, N-(2-fluoro-3-(2-((6-(4-methylpiperazin-1-yl)pyridin-3-yl)amino)quinazolin-8-yl)phenyl)acrylamide], for which the IC50 in the test with A431 cells is more than 0.5 µM; with H1975 cells, less than 0.1 µM; on EGFR (ErbB1) T790M L858R, less than 0.1 µM; at EGFR (ErbB1) (read-out: IC50 against EGFR) it was less than 0.1 µM. Further, the inhibition at 0.0137 µM on EGFR (ErbB1) T790M L858R was more than 50%. In addition, the inhibition at 0.041 µM at EGFR (ErbB1) is more than 50%.
For the compound `C=CC(=O)Nc1cccc(-c2cccc3cnc(Nc4ccc(N5CCN(C)CC5)c(Cl)c4)nc23)c1` [Example C072, N-(3-(2-((3-chloro-4-(4-methylpiperazin-1-yl)phenyl)amino)quinazolin-8-yl)phenyl)acrylamide], the figures for the IC50 with A431 cells, with H1975 cells and at EGFR (ErbB1) T790M L858R were 0.1 to 0.5 µM, 0.1 to 0.5 µM and less than 0.1 µM, respectively. For the same compound, the inhibition at 0.0137 µM on EGFR (ErbB1) T790M L858R is more than 50%. Further, on EGFR (ErbB1), the inhibition at 0.041 µM was less than 50%.
In the case of `C=CC(=O)Nc1cccc(-c2cccc3cnc(Nc4ccc(N5CCN(C)CC5)cc4)nc23)c1OC` [Example C063, N-(2-methoxy-3-(2-((4-(4-methylpiperazin-1-yl)phenyl)amino)quinazolin-8-yl)phenyl)acrylamide], the results for the IC50 with A431 cells, in the test with H1975 cells and at EGFR (ErbB1) T790M L858R were more than 0.5 µM, less than 0.1 µM and less than 0.1 µM, respectively. In addition, the inhibition at 0.0137 µM at EGFR (ErbB1) T790M L858R is more than 50%. Also, the inhibition at 0.041 µM on EGFR (ErbB1) is more than 50%.
As for `C=CC(=O)Nc1cccc(-c2cccc3cnc(Nc4ccc(OC5CCN(CCF)CC5)cc4)nc23)c1` [Example C136, N-(3-(2-((4-((1-(2-fluoroethyl)piperidin-4-yl)oxy)phenyl)amino)quinazolin-8-yl)phenyl)acrylamide], the IC50 in the test with A431 cells and with H1975 cells was less than 0.1 µM throughout. Also, the inhibition at 0.0137 µM at EGFR (ErbB1) T790M L858R was more than 50%. At EGFR (ErbB1), the inhibition at 0.041 µM is less than 50%.
Take `C=CC(=O)Nc1cccc(-c2cccc3cnc(Nc4ccc(N5CCN(C(C)=O)CC5)cc4)nc23)c1F` [Example C049, N-(3-(2-((4-(4-acetylpiperazin-1-yl)phenyl)amino)quinazolin-8-yl)-2-fluorophenyl)acrylamide]: the results for the IC50 with A431 cells, in the test with H1975 cells and on EGFR (ErbB1) T790M L858R were more than 0.5 µM, 0.1 to 0.5 µM and less than 0.1 µM, respectively. The inhibition at 0.0137 µM on EGFR (ErbB1) T790M L858R was more than 50%. Further, on EGFR (ErbB1), the inhibition at 0.041 µM was more than 50%.
As to `C=CC(=O)Nc1cc(-c2cccc3cnc(Nc4ccc(N5CCN(C)CC5)cc4)nc23)ccn1` [Example C057, N-(4-(2-((4-(4-methylpiperazin-1-yl)phenyl)amino)quinazolin-8-yl)pyridin-2-yl)acrylamide], the IC50 with A431 cells was 0.1 to 0.5 µM; in the test on H1975 cells, 0.1 to 0.5 µM; on EGFR (ErbB1) T790M L858R, less than 0.1 µM. In addition, at EGFR (ErbB1) T790M L858R, the inhibition at 0.0137 µM is more than 50%. The inhibition at 0.041 µM at EGFR (ErbB1) was more than 50%.
Take `C=CC(=O)Nc1cccc(-c2cccc3cnc(Nc4ccc(OC5CCN(C)CC5F)cc4)nc23)c1F` (stereo not shown) [Example C080, N-(2-fluoro-3-(2-((4-((3-fluoro-1-methylpiperidin-4-yl)oxy)phenyl)amino)quinazolin-8-yl)phenyl)acrylamide]: the IC50 was 0.1 to 0.5 µM in the test with A431 cells, less than 0.1 µM in the test on H1975 cells and less than 0.1 µM on EGFR (ErbB1) T790M L858R. At EGFR (ErbB1) T790M L858R, the inhibition at 0.0137 µM is more than 50%. Moreover, the inhibition at 0.041 µM at EGFR (ErbB1) was more than 50%.
Take `C=CC(=O)Nc1cccc(-c2cccc3cnc(Nc4ccc(N5CCN(C)CC5)cc4)nc23)c1F` [Example C045, N-(2-fluoro-3-(2-((4-(4-methylpiperazin-1-yl)phenyl)amino)quinazolin-8-yl)phenyl)acrylamide]: the IC50 in the test on A431 cells is 0.1 to 0.5 µM; in the test on H1975 cells it was less than 0.1 µM; at EGFR (ErbB1) T790M L858R, less than 0.1 µM. The inhibition at 0.0137 µM at EGFR (ErbB1) T790M L858R was more than 50%. Besides, the inhibition at 0.041 µM at EGFR (ErbB1) was more than 50%.
Regarding `C=CC(=O)Nc1cccc(-c2cccc3cnc(Nc4ccc(N5CCN(CC(F)F)CC5)cc4)nc23)c1` [Example C056, N-(3-(2-((4-(4-(2,2-difluoroethyl)piperazin-1-yl)phenyl)amino)quinazolin-8-yl)phenyl)acrylamide], the values for the IC50 in the test with A431 cells and with H1975 cells were more than 0.5 µM and 0.1 to 0.5 µM, respectively. The inhibition at 0.0137 µM at EGFR (ErbB1) T790M L858R was less than 50%. In addition, the inhibition at 0.041 µM at EGFR (ErbB1) is less than 50%.
For the compound `C=CC(=O)Nc1cncc(-c2cccc3cnc(Nc4ccc(N5CCN(C)CC5)nc4)nc23)c1` [Example C047, N-(5-(2-((6-(4-methylpiperazin-1-yl)pyridin-3-yl)amino)quinazolin-8-yl)pyridin-3-yl)acrylamide], the IC50 with A431 cells was more than 0.5 µM; with H1975 cells it was 0.1 to 0.5 µM. The inhibition at 0.0137 µM on EGFR (ErbB1) T790M L858R is more than 50%. The inhibition at 0.041 µM at EGFR (ErbB1) was more than 50%.
As to `C=CC(=O)Nc1cncc(-c2cccc3cnc(Nc4ccc(N5CCN(CCF)CC5)cc4)nc23)c1` [Example C058, N-(5-(2-((4-(4-(2-fluoroethyl)piperazin-1-yl)phenyl)amino)quinazolin-8-yl)pyridin-3-yl)acrylamide], the IC50 in the test with A431 cells is more than 0.5 µM; in the test on H1975 cells, less than 0.1 µM. Further, the inhibition at 0.0137 µM on EGFR (ErbB1) T790M L858R was more than 50%. Moreover, the inhibition at 0.041 µM at EGFR (ErbB1) is less than 50%.
For the compound `CC(=O)N1CCN(c2ccc(Nc3ncc4cccc(-c5cccc(NC(=O)/C=C/CN(C)C)c5Cl)c4n3)cc2)CC1` [Example C060, (E)-N-(3-(2-((4-(4-acetylpiperazin-1-yl)phenyl)amino)quinazolin-8-yl)-2-chlorophenyl)-4-(dimethylamino)but-2-enamide], the IC50 with A431 cells is more than 0.5 µM; in the test on H1975 cells it was 0.1 to 0.5 µM. In addition, the inhibition at 0.0137 µM at EGFR (ErbB1) T790M L858R was more than 50%. For the same compound, on EGFR (ErbB1), the inhibition at 0.041 µM was less than 50%.
Take `C=CC(=O)Nc1cccc(-c2cccc3cnc(Nc4ccc(N5CCN(C)CC5)c(C#N)c4)nc23)c1` [Example C074, N-(3-(2-((3-cyano-4-(4-methylpiperazin-1-yl)phenyl)amino)quinazolin-8-yl)phenyl)acrylamide]: the values for the IC50 in the test on A431 cells, in the test with H1975 cells and at EGFR (ErbB1) T790M L858R were 0.1 to 0.5 µM, 0.1 to 0.5 µM and less than 0.1 µM, respectively. Besides, the inhibition at 0.0137 µM at EGFR (ErbB1) T790M L858R is more than 50%. The inhibition at 0.041 µM at EGFR (ErbB1) was less than 50%.
Consider `C=CC(=O)Nc1cccc(-c2cccc3cnc(Nc4ccc(N5CCN(C)CC5)cc4)nc23)c1C#N` [Example C068, N-(2-cyano-3-(2-((4-(4-methylpiperazin-1-yl)phenyl)amino)quinazolin-8-yl)phenyl)acrylamide], for which the IC50 in the test with A431 cells is more than 0.5 µM; in the test on H1975 cells, 0.1 to 0.5 µM; at EGFR (ErbB1) T790M L858R, less than 0.1 µM. Moreover, at EGFR (ErbB1) T790M L858R, the inhibition at 0.0137 µM is more than 50%. At EGFR (ErbB1), the inhibition at 0.041 µM was more than 50%.
For the compound `C=CC(=O)Nc1ccc(C#N)c(-c2cccc3cnc(Nc4ccc(N5CCN(C)CC5)cc4)nc23)c1` [Example C100, N-(4-cyano-3-(2-((4-(4-methylpiperazin-1-yl)phenyl)amino)quinazolin-8-yl)phenyl)acrylamide], the IC50 with H1975 cells is more than 0.5 µM. Also, at EGFR (ErbB1) T790M L858R, the inhibition at 0.0137 µM is less than 50%. Also, the inhibition at 0.041 µM at EGFR (ErbB1) was less than 50%.

The values are drawn from patent publication US10172868B2, “Substituted quinazolines for inhibiting kinase activity” (NeuPharma, Inc., priority 2013, dated 2019).
